In the supplement of paper PMC11061612:

Columns and labels:
Assay in all cases: Bliss excess, mean over the matrix (fraction); higher = more synergy
[1] = tested on: CHSA8926 (Chondrosarcoma)
Method in brief: (§1)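 Bliss excess equals the observed combination effect minus the expected value EA + EB − EA·EB, where EA and EB are the effects of each agent alone. Combination Emax is the second-highest inhibition within the matrix. Inhibition was scaled from CellTiter-Glo 2.0 luminescence, with 0 set by vehicle wells and 1 by blank wells, after 72 hours of two-drug dosing of cells plated in 1536-well plates.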

[2] = tested on: CW-2 (Colorectal Carcinoma)
Method in brief: as §1

[3] = tested on: DAN-G (Pancreatic Carcinoma)
Method in brief: as §1

[4] = tested on: DMS-114 (Small Cell Lung Carcinoma)
Method in brief: as §1

[5] = tested on: H9 (T-Cell Non-Hodgkin's Lymphoma)
Method in brief: as §1

[6] = tested on: HCC1187 (Breast Carcinoma)
Method in brief: as §1

[7] = tested on: HCC1419 (Breast Carcinoma)
Method in brief: as §1

[8] = tested on: JHH-4 (Hepatocellular Carcinoma)
Method in brief: as §1

[9] = tested on: KMS-12-BM (Plasma Cell Myeloma)
Method in brief: as §1

M059J (Glioblastoma) = tested on: M059J (Glioblastoma)
Method in brief: as §1

[10] = tested on: MOLM-13 (Acute Myeloid Leukemia)
Method in brief: as §1

[11] = tested on: NCCIT (Other Solid Carcinomas)
Method in brief: as §1

[12] = tested on: NCI-H3122 (Lung Adenocarcinoma)
Method in brief: as §1

[13] = tested on: NCI-H526 (Small Cell Lung Carcinoma)
Method in brief: as §1

RD (Rhabdomyosarcoma) = tested on: RD (Rhabdomyosarcoma)
Method in brief: as §1

SJSA-1 (Osteosarcoma) = tested on: SJSA-1 (Osteosarcoma)
Method in brief: as §1

[14] = tested on: SK-GT-2 (Gastric Carcinoma)
Method in brief: as §1

[15] = tested on: SNU-398 (Hepatocellular Carcinoma)
Method in brief: as §1

[16] = tested on: ST486 (Burkitt's Lymphoma)
Method in brief: as §1

[17] = tested on: VMRC-RCZ (Kidney Carcinoma)
Method in brief: as §1

Structure (SMILES) | Bliss excess [1] | Bliss excess [2] | Bliss excess [3] | Bliss excess [4] | Bliss excess [5] | Bliss excess [6] | Bliss excess [7] | Bliss excess [8] | Bliss excess [9] | Bliss excess (M059J (Glioblastoma)) | Bliss excess [10] | Bliss excess [11] | Bliss excess [12] | Bliss excess [13] | Bliss excess (RD (Rhabdomyosarcoma)) | Bliss excess (SJSA-1 (Osteosarcoma)) | Bliss excess [14] | Bliss excess [15] | Bliss excess [16] | Bliss excess [17]
Cc1cc2ncnn2cc1Nc1ncc2c(n1)n(C1CCOCC1)c(=O)n2C [AZD7648] + C=CCn1c(=O)c2cnc(Nc3ccc(N4CCN(C)CC4)cc3)nc2n1-c1cccc(C(C)(C)O)n1 [AZD1775] (first compound max 10 µM, partner max 1 µM) | 0.0382 | 0.0419 | -0.0686 | -0.0151 | 0.0346 | 0.0302 | -0.0156 | 0.04 | 0.0085 | -0.0821 | -0.0255 | 0.0237 | -0.0402 | 0.013 | -0.0168 | -0.024 | -0.047 | 0.0128 | -0.0316 | 0.0117
COc1nnc2ccc(N3CCC(c4ccc(OCCN5CCN(C)C(=O)[C@H]5C)cc4)CC3)nn12 [AZD5153] + CCN(CCO)CCCOc1ccc2c(Nc3cc(CC(=O)Nc4cccc(F)c4)[nH]n3)ncnc2c1 [AZD2811] (first compound max 1 µM, 7x7, partner max 1 µM) | -0.035 | -0.0525 | -0.0611 | -0.0127 | -0.0163 | -0.0934 | -0.0414 | -0.0334 | 0.0641 | -0.0225 | 0.0176 | -0.0288 | -0.0217 | -0.0332 | 0.0001 | -0.0335 | -0.0314 | -0.0495 | -0.0647 | -0.0259
CC1(C)CCC(CN2CCN(c3ccc(C(=O)NS(=O)(=O)c4ccc(NCC5CCOCC5)c([N+](=O)[O-])c4)c(Oc4cnc5[nH]ccc5c4)c3)CC2)=C(c2ccc(Cl)cc2)C1 [Venetoclax] + CCN(CCO)CCCOc1ccc2c(Nc3cc(CC(=O)Nc4cccc(F)c4)[nH]n3)ncnc2c1 [AZD2811] (first compound max 1 µM, 7x7, partner max 1 µM) | 0.0042 | 0.0269 | -0.0106 | -0.0334 | -0.0616 | -0.0165 | -0.0448 | -0.0152 | 0.0773 | -0.0687 | 0.0626 | 0.0139 | -0.0229 | 0.138 | -0.0311 | -0.0214 | 0.0136 | -0.0599 | -0.0299 | -0.0391
C[C@@H]1COCCN1c1cc(C2([S@](C)(=N)=O)CC2)nc(-c2ccnc3[nH]ccc23)n1 [AZD6738] + O=C(c1cc(Cc2n[nH]c(=O)c3ccccc23)ccc1F)N1CCN(C(=O)C2CC2)CC1 [Olaparib] (first compound max 10 µM, 7x7, partner max 10 µM) | 0.01 | 0.0008 | -0.0051 | 0.0254 | 0.0058 | 0.0586 | -0.0175 | -0.0325 | -0.0189 | 0.0113 | -0.0526 | 0.0227 | 0.0446 | -0.0072 | 0.0312 | -0.0371 | 0.0148 | 0.0108 | -0.0026 | 0.0181
CN(C)CCCOc1ccc(-c2ccc3ncc4c(c3c2)n(C2CCOCC2)c(=O)n4C)cn1 [AZD0156] + O=C(c1cc(Cc2n[nH]c(=O)c3ccccc23)ccc1F)N1CCN(C(=O)C2CC2)CC1 [Olaparib] (first compound max 3 µM, partner max 3 µM) | -0.0022 | -0.0031 | 0.0824 | -0.0425 | 0.0284 | 0.0813 | -0.0673 | -0.0166 | 0.0448 | 0.0304 | 0.21 | 0.0093 | -0.0062 | 0.167 | 0.0333 | 0.017 | 0.0292 | 0.0815 | 0.24 | -0.0283
CN(CCO)CC[C@H](CSc1ccccc1)Nc1ccc(S(=O)(=O)NC(=O)c2ccc(N3CCC([C@@H](O)c4ccccc4-c4ccc(Cl)cc4)CC3)cc2)cc1S(=O)(=O)C(F)(F)F [AZD4320] + CN(C)CCCOc1ccc(-c2ccc3ncc4c(c3c2)n(C2CCOCC2)c(=O)n4C)cn1 [AZD0156] (first compound max 1 µM, 7x7, partner max 1 µM) | -0.0797 | -0.007 | -0.0031 | -0.0466 | -0.0151 | 0.0062 | -0.0645 | -0.016 | 0.0211 | 0.0015 | -0.0649 | -0.0299 | -0.0486 | -0.0092 | -0.0172 | 0.0377 | 0.0006 | -0.0009 | -0.0086 | -0.058
Cc1c2c(nn1C)CSCc1cc(n(C)n1)CSc1cc(c3ccccc3c1)OCCCc1c(C(=O)O)n(C)c3c-2c(Cl)ccc13 [AZD5991] + CN(C)CCCOc1ccc(-c2ccc3ncc4c(c3c2)n(C2CCOCC2)c(=O)n4C)cn1 [AZD0156] (first compound max 1 µM, 7x7, partner max 1 µM) | 0.0117 | 0.0041 | 0.0141 | 0.003 | 0.0314 | -0.0266 | 0.0105 | -0.0063 | -0.0445 | 0.006 | -0.0329 | -0.039 | 0.0187 | 0.0054 | 0.0095 | 0.0256 | 0.0228 | -0.0018 | -0.0716 | -0.018
